Source: US7576207B2, “Spirocyclic heterocyclic derivatives and methods of their use” (Adolor Corporation, priority 2006, dated 2009)

Assays:
[1] = target: T1, cloned human δ opioid receptors (Homo sapiens, UniProt P41143); test: Receptor-mediated [35S]GTPγS binding, δ opioid receptor; type: biochemical; conditions: stimulation of [35S]GTPγS binding to membranes containing cloned human δ opioid receptors; read-out: in vitro δ agonist activity EC50
T1 construct: expressed in transfected cells; host or cells: CHO cells
Description: The potency and efficacy of compounds at each of the receptors are assessed by modifications of the methods of Selley, et al., 1997 and Traynor and Nahorski, 1995 using receptor-mediated [S]GTPγS binding in the same membrane preparations used to measure receptor binding. Assays are carried out in 96-well FlashPlates® (Perkin Elmer Life Sciences, Inc, Boston, Mass.). Membranes prepared from CHO cells expressing the appropriate receptor (50-100 μg of protein) are added to assay mixtures containing agonist with or without antagonists, 100 pM [^35S]GTPγS (approx. 100,000 dpm), 3.0 μM GDP, 75 mM NaCl, 15 mM MgCl2, 1.0 mM ethylene glycol-bis(β-aminoethyl ether)-N,N,N′,N′-tetracetic acid, 1.1 mM dithiothreitol, 10 μg/mL leupeptin, 10 μg/mL pepstatin A, 200 μg/mL bacitracin, and 0.5 μg/mL aprotinin in 50 mM Tris-HCl buffer, pH 7.8. After incubation at room temperature for one hour, the plates are sealed, centrifuged at 800×g in a swinging bucket rotor for 5 minutes and bound radioactivity determined with a TopCount microplate scintillation counter (Packard Instrument Co., Meriden, Conn.).
EC50 values for agonists are determined from nonlinear regression fits of 8- or 12-point titration curves to the 4-parameter equation for a sigmoidal dose-response with a slope factor of 1.0 using GraphPad Prism® version 3.00 for Windows (GraphPad Software, San Diego, Calif.).

[2] = target: T1, cloned human δ opioid receptors; test: [3H]diprenorphine receptor binding, δ opioid receptor; conditions: inhibition of [3H]diprenorphine binding; Cheng-Prusoff correction; read-out: affinity (expressed as Ki value), δ opioid receptor
Description: (§1) The potencies of the final compounds found in Examples 1A-9D were determined by testing the ability of a range of concentrations of each compound to inhibit the binding of the non-selective opioid antagonist, [^3H]diprenorphine, to the cloned human μ, ? and δ opioid receptors, expressed in separate cell lines. IC50 values were obtained by nonlinear analysis of the data using GraphPad Prism version 3.00 for Windows (GraphPad Software, San Diego). Ki values were obtained by Cheng-Prusoff corrections of IC50 values.
(§2) The receptor binding method (DeHaven and DeHaven-Hudkins, 1998) was a modification of the method of Raynor et al. (1994). […] The filters were rinsed 4 times with 1 mL of cold 50 mM Tris HCl, pH 7.8 and radioactivity remaining on the filters determined by scintillation spectroscopy. Nonspecific binding was determined by the minimum values of the titration curves and was confirmed by separate assay wells containing 10 μM naloxone. Ki values were determined by Cheng-Prusoff corrections of IC50 values derived from nonlinear regression fits of 12 point titration curves using GraphPad Prism® version 3.00 for Windows (GraphPad Software, San Diego, Calif.).
(§3) To determine the equilibrium dissociation constant for the inhibitors (Ki), radioligand bound (cpm) in the presence of various concentrations of test compounds was measured. […]

[3] = target: T2, cloned human κ opioid receptors (Homo sapiens, UniProt P41145); test: [3H]diprenorphine receptor binding, κ opioid receptor; conditions: inhibition of [3H]diprenorphine binding; Cheng-Prusoff correction; read-out: affinity (expressed as Ki value), κ opioid receptor
T2 construct: expressed in transfected cells; host or cells: CHO cells
Description: as §1, §2, §3

[4] = target: T3, cloned human μ opioid receptors (Homo sapiens, UniProt P35372); test: [3H]diprenorphine receptor binding, μ opioid receptor; conditions: inhibition of [3H]diprenorphine binding; Cheng-Prusoff correction; read-out: affinity (expressed as Ki value), μ opioid receptor
T3 construct: expressed in transfected cells; host or cells: CHO cells
Description: as §1, §2, §3

T1 sequence (P41143 whole entry): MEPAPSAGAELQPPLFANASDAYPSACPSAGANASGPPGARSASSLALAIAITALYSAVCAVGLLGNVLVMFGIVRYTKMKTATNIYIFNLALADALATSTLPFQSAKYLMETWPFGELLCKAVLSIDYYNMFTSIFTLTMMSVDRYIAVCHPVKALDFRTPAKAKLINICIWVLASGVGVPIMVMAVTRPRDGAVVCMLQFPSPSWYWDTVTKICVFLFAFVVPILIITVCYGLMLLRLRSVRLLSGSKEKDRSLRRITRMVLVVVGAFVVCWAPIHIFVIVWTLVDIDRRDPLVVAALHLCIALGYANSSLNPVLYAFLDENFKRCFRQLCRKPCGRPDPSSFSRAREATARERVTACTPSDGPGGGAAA
T3 sequence (P35372 whole entry): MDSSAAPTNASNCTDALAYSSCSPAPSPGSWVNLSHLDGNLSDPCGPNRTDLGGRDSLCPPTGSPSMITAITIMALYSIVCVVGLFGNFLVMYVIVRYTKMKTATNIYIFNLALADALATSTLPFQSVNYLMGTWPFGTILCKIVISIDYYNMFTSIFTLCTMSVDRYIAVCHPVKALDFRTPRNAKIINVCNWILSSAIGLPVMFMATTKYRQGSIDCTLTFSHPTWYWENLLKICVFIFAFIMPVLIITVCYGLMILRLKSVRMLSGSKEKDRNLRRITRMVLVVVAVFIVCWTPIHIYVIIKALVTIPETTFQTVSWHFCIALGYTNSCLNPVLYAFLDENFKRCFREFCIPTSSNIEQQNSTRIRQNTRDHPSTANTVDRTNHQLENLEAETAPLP
T2 sequence (P41145 whole entry): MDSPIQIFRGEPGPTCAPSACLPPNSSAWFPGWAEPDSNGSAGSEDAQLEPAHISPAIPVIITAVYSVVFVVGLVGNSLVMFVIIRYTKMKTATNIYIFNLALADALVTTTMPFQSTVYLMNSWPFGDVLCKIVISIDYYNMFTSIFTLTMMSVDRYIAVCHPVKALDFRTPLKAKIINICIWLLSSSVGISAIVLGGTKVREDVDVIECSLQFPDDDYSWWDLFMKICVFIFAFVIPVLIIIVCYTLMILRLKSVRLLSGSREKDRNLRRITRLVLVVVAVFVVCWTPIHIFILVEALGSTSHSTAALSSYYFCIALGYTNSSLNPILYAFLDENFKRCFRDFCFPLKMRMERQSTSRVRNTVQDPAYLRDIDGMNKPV

Compound: CCNC(=O)c1ccc2c(c1)C(CCCCC(=O)N(CC)CC)CC1(CCNCC1)C2 (stereo not shown) [Example 9D, 4-[(4-N,N-diethylaminocarbonyl)butyl]-spiro[6-N-ethylcarbonyl-1,2,3,4-tetrahydronaphthalene-2,4′-piperidine]]
- EC50 [1]: 8.1 nM
- Ki [2]: 0.47 nM
- Ki [3]: 696 nM
- Ki [4]: 632 nM
